Measurements as given in patent US10525016B2, “Nutritional compositions containing an elevated level of inositol and uses thereof” (Mead Johnson Nutrition Company, priority 2015, dated 2020).

Key:
[1] = tested on: oligodendrocyte-DRG cocultures; test: dose-response of inositol on oligodendrocyte-DRG coculture: myelin deposition and extent; type: cell-based
Protocol: FIG. 4 illustrates the utility of dual-fluorescence labeling of OPCs in green and oligodendrocytes (Oligo) in red (left), as well as myelin deposition along the DRG neuronal fibers in red (right). It is to examine a dose-response of the inositol on oligodendrocyte-DRG coculture. Inositol was added to purified oligodendrocyte-DRG cocultures and cells were analyzed for effects on proliferation, survival differentiation and myelination. […] FIG. 5 illustrates the inositol effects on the control myelin extent in a dose-responsive manner. In the coculture system, neurofibers were included to validate the effects on myelin extent. […] Taken together, oligodendroglia rely on neuronal inositol for survival, proliferation, differentiation and the instruction of the generation of the appropriate number of […] internodes and the extent of wrapping.

[2] = tested on: primary hippocampal neurons; test: synaptic development in primary hippocampal neurons (Bassoon/Homer immunostaining); type: cell-based, rats
Protocol: Primary hippocampal neurons were prepared from rats at E18. In brief, dissected hippocampi were incubated in 0.05% trypsin at 37° C. for 20 minutes and plated at a density of ˜30,000 cells per coverslip. Dissociated cells were plated on poly-L-lysine and incubated in a cell culture incubator with 5.0% CO2. Cytosine arabinoside was added at a final concentration of 2 μM per well 2 days in vitro to prevent glia cell overgrowth. For studies of inositol, neurons were either grown in inositol-free medium or in inositol-free medium supplemented with 40 μm inositol. After day 4 in vitro, neurons were grown either in inositol-free medium or in inositol-free medium supplemented with 40 μm or 200 μM inositol. At the first time of treatment at 4 days in vitro, the entire medium was exchanged for fresh medium containing nutrients, or control medium without nutrients. At the time of subsequent nutrient additions, approximately ½ of the medium was exchanged and replaced with nutrient-containing medium or control medium without nutrients. Neurons were processed for immunostaining at 14 days in vitro, i.e. after 10 days of chronic treatment. […] We determined this both by automated quantitative immunostaining for the presynaptic marker Bassoon or excitatory postsynaptic Homer, as shown in FIGS. 6 and 7 (p<0.05). […] Further, the experiment supports that the size of postsynaptic sites is larger when inositol is added, indicating more efficient synaptic transmission (p<0.05) (see, FIG. 9). Confocal imaging was performed on a Leica TCS SPE DM2500 microscope equipped with one spectral PMT. Fluorochromes imaged include Alexa 488, Alexa 555, and Alexa 647 (Invitrogen). Green fluorescence represents Bassoon presynaptic, red Homer postsynaptic, blue MAP2 dendrites. […] There was noticeable lack of growth and synapses which was visible while imaging.

[3] = tested on: oligodendrocyte precursor cells (OPCs); test: inositol on purified oligodendroglial cultures: OPC number (PDGFRa staining); type: cell-based
Protocol: FIG. 1 illustrates the functional implications of inositol in oligodendroglia survival and proliferation. Inositol was added to purified oligodendroglial cultures and cells were analyzed for effects on proliferation, survival and differentiation by immunohistochemistry under the fluorescent microscopy. OPCs were analyzed by staining with antibody against PDGFRa and visualized in green fluorescence; and oligodendrocytes with that against MBP in red. […] Depletion of inositol in the medium results in a fifty percent loss of oligodendrocyte precursor cells and thirty percent loss in oligodendrocytes. […] A culture condition containing 40 μM inositol in which the count of the numbers of living OPCs was normalized as 1, as a baseline control. The beginnings of culture of OPCs are equal in terms of OPC number in culture dish in all conditions. Inositol was added to each OPC culture at zero, 200 nM, 1 μM, 10 μM, 40 μM, 100 μM, and 200 μM. Since the OPCs only respond to platelet-derived growth factor PDGF, a potent mitogen, for proliferation, the condition containing 40 μM inositol and PDGF was set as a positive control. […] Such a positive effect reached about 70% of that in the positive control. […] The results are graphically illustrated in FIG. 2

oligodendrocytes (Oligo) = test: inositol on purified oligodendroglial cultures: Oligo number (MBP staining); type: cell-based
Protocol: FIG. 1 illustrates the functional implications of inositol in oligodendroglia survival and proliferation. Inositol was added to purified oligodendroglial cultures and cells were analyzed for effects on proliferation, survival and differentiation by immunohistochemistry under the fluorescent microscopy. OPCs were analyzed by staining with antibody against PDGFRa and visualized in green fluorescence; and oligodendrocytes with that against MBP in red. […] Depletion of inositol in the medium results in a fifty percent loss of oligodendrocyte precursor cells and thirty percent loss in oligodendrocytes.
It may relate to the different mechanisms by which the OPCs respond to higher level of inositol and to the PDGF. Taken together, it is a novel finding that inositol at higher level promotes OPCs differentiation into mature Oligo.

[4] = increasing inositol from 40 μM to 200 μM, 14 days in vitro, p<0.05
[5] = depletion of inositol in the medium

O[C@H]1[C@H](O)[C@@H](O)[C@H](O)[C@@H](O)[C@H]1O [inositol]
myelin deposition along DRG neuronal fibers ([1]; absence of inositol): the amount of red labeling and appearance of myelin were inappropriate
myelin internodes formed (myelin extent) ([1]; absence of inositol, compared to control base medium at 40 μM): few myelin internodes were formed
myelin deposition along DRG neuronal fibers ([1]; baseline condition, 40 μM inositol): myelin was wrapping around the neuronal fiber
myelin deposition along DRG neuronal fibers ([1]; inositol 200 μM): more myelin has been deposited along the neuronal fibers
myelin internodes formed (myelin extent) ([1]; inositol 200 μM compared to the controls): more and longer myelin internodes
health of the neurons (confocal imaging) ([2]; depletion of inositol): poor health of the neurons
formation of functional synapses and overall neuron health ([2]; elevated level of inositol supplement): significantly enhances the formation of functional synapses and overall neuron health
density of synaptic specializations, excitatory postsynaptic Homer [2, 4]: substantially elevates
density of synaptic specializations, presynaptic marker Bassoon [2, 4]: substantially elevates
overall health of neurons (confocal imaging) ([2]; inositol 40 μM): significantly promotes the overall health of neurons
overall health of neurons (confocal imaging) ([2]; inositol 200 μM): significantly promotes the overall health of neurons
density of synaptic sites where both Bassoon and Homer co-localize ([2]; inositol added, p<0.05): strong inositol effect
size of postsynaptic sites ([2]; inositol added, p<0.05): larger
OPC and oligodendrocyte health ([3]; 200 μM compared to the 40 μM in the base medium): significantly increased
loss of oligodendrocyte precursor cells [3, 5]: fifty
quantification of OPCs vs baseline control at 40 μM inositol ([3]; inositol 200 nM, p<0.05): significantly decreased
quantification of OPCs vs baseline control at 40 μM inositol ([3]; inositol 1 μM, p<0.05): significantly decreased
quantification of OPCs vs baseline control at 40 μM inositol ([3]; inositol 10 μM, p<0.05): significantly decreased
positive effect on OPCs number relative to the positive control (40 μM inositol and PDGF) ([3]; inositol 200 μM): about 70%
OPCs number vs baseline control at 40 μM inositol ([3]; inositol 200 μM, p<0.05): significantly increased
quantification of OPCs vs baseline control at 40 μM inositol ([3]; inositol at zero, p<0.05): significantly decreased
oligodendroglial survival ([3]; inositol supplementation in purified oligodendroglia cultures): significantly promotes oligodendroglial survival
overall response of OPC number to inositol ([3]; zero to 200 μM): dose-dependent manner
quantification of Oligo numbers vs baseline at 40 μM inositol (oligodendrocytes (Oligo); absence of inositol, p<0.05): significantly decreased
loss in oligodendrocytes (oligodendrocytes (Oligo); [5]): thirty
quantification of Oligo numbers vs baseline at 40 μM inositol (oligodendrocytes (Oligo); inositol 200 nM, p<0.05): significantly decreased
Oligo numbers vs baseline at 40 μM inositol (oligodendrocytes (Oligo); inositol 200 μM, p<0.05): rise and appear a statistical significance

PDGF [reference compound]
Oligo number vs baseline at 40 μM inositol (oligodendrocytes (Oligo); condition containing PDGF with 40 μM inositol, p<0.05): decreased significantly
